Experimental data as given in patent US5942522A, “Antiviral compounds and antihypertensive compounds” (Schering Corporation, priority 1997, dated 1999).
Values after ≈ are worked out from the molar mass of the structure shown. Where two headings read alike, the source gives them in different places.

How the values were obtained:
[1] = target: T1, cGMP phosphodiesterase (cGMP-PDE) (Bos taurus, UniProt Q28156); experiment: Inhibition of cGMP phosphodiesterase in vitro; assay type: biochemical, bovine; settings: 1 μM 3H-cGMP, pH 7.5, 25 min, room temperature
T1 construct: is a homogeneous enzyme obtained from bovine lung; from tissue; host or cells: bovine lung

HSV-2, strain MS = experiment: Prophylactic guinea pig model of HSV infection; assay type: in vivo; settings: 60 mg/kg s.c. (test compounds) T.I.D., 10 days, first dose 24 h before infection; for MSL (Maximum Lesion score): scale of 1-4
Protocol: The in vivo assessment of anti-HSV efficacy was determined in the prophylactic guinea pig model of HSV infection described by Stansberry et al (1982). Dosing of guinea pigs comprised an initial treatment with test compound given 24 hours prior to virus infection and subsequent administration of the compound every eight hours (T.I.D.) for a total of 10 days. Test compounds were administered subcutaneously in 0.5% buffered methyl celluslose at a dose of 60 mg per kg body weight of the animal. Animals were monitored daily for the development of genital lesions and neurological symptomology, both of which were recorded and compared to the results obtained with parallel groups which received placebo or acyclovir treatment. Efficacy was evaluated for each compound by scoring the ability of the compound to ameliorate genital lesions produced by infection with HSV-2, strain MS, expressed as Maximum Lesion Scores (MLS) on a scale of 1 (least lesions) to 4 (severe lesions).

HSV-2 (strain MS) = experiment: HSV-β-Gal assay: transient expression of beta galactosidase in transfected HeLa cells superinfected with HSV-2; assay type: cell-based; settings: 24 h
Protocol: (§1) HeLa and Vero cell cultures were maintained in Eagles Minimal Essential Medium (EMEM) which was supplemented with glutamine, penicillin, streptomycin and 10% fetal calf serum (10% EMEM). Stock cultures of HSV-2 (strain MS available from ATCC VR-540) were grown in and harvested from Vero cells. Viral stocks were titered in Vero cells according to established procedures.
Plasmid pON 245^ori- contains the promoter of the HSV-1 thymidine kinase (tk) gene located immediately 5'of the E. coli lac Z gene. In this arrangement, the tk promoter controls transcription from the bacterial gene in transient expression assays. Additionally, an SV40 polyadenylation signal is present at the 3' end of the lac Z gene to allow for the efficient translation of the mRNA in eucaryotic cells. The expression of beta galactosidase in a transient assay using pON 245^ori- is dependent upon superinfection of the transfected cells with HSV. […] For example see U.S. application Ser. No. 07/435,491 filed Sep. 5, 1989, the disclosure of which is incorporated herein by reference thereto.
HeLa cells were seeded into 96 well microtiter plates and allowed to grow to 80% confluency (approximately 35000 cells/well). One half microgram of plasmid pON 245^ori- DNA was introduced into the cells of each well by the […] precipitation technique (Grahman and Van der Eb, 1973). Four to six hours later, the cells were rinsed with hank's Balanced Salt Solution (HBSS), overlaid with 10% EMEM and incubated at 37° C. At 24 hours post-transfection, cells were rinsed, overlaid with 10% EMEM again and re-incubated at 37° C. At 48 hours post-transfection, cells were rinsed and overlaid with either EMEM containing 2% fetal calf serum (2% EMEM), 2% EMEM containing HSV-2 (strain MS, Multiplicity of Infection [moi]=5 pfu/cell) or 2% EMEM containing HSV-2 and the appropriate concentration of Schering compound to be tested. Twenty-four hours later, the cells were harvested and assayed for beta galactosidase activity as described below.
All determinations of beta galactosidase activity were performed in 96 well microtiter plates. The intracellular level of beta galactosidase activity in each well was determined from cell lysates of the monolayer cultures. Aliquots were assayed by incubation in the presence of beta galactosidase substrate, 4-methylumbelliferyl-β-D-galactoside (MUG, 125 ug/ml, Sigma), for 2 hours. The generation of fluorescent product was quantified on a Microfluor microfluorimeter (Dynatech) after addition of 0.1M glycine, pH 10.3 (Spaete and Mocarski, 1985). The inhibitory activity of a compound was plotted versus the concentration and an IC50 value (the concentration of compound required to reduce beta glactosidase expression by 50%) was obtained for each compound tested.

HeLa cells = experiment: Compound toxicity assay: inhibition of HeLa cell translation (3H-leucine incorporation); assay type: cell-based; settings: Homo sapiens, Table II^1, read-out: Cytoxicity 3H-LEU assay IC50
[2] = as above; assay type: cell-based; settings: human; Table II; HeLa cells; read-out: Cytotoxicity 3H-LEU assay IC50
Protocol: as §1
HeLa cells were treated with inhibitory compound for 24 hours, after which levels of translational activity were assayed.
For assay of translational activity, HeLa cultures were grown to 80% confluency in 96 well microtiter plates, treated with appropriate concentrations of compound in 2% EMEM during an overnight incubation at 37° C., then rinsed with HBSS and overlaid with […] of 2% EMEM containing 8 uCi of tritiated leucine (^3 H-LEU, […], Amersham Corp., Arlington Heights, Ill.). After a 1 hour incubation at 36.5°C., the cells were rinsed twice with phosphate buffered saline (PBS) and lysed in 400 ul/well of 1×PBS, 0.5% sodium dodecyl sulphate (SDS). After a 10 min incubation at 36.5° C., the contents of the well were transferred to a well in a Millititer HA microfiltration plate (Millipore Corp., Bedford, Mass.). The TCA insoluble proteins were precipitated onto the filter disc by a 10 min fixation with 5% TCA, followed by filtration under vacuum and three 10 minute rinses with 95% ethanol. The filters were dried at room temperature, cut from the milltitier plate and transferred to scintillation vials. TCA precipitable counts were assayed in 5 ml of Scintisol (Isolab, Akron, Ohio). The inhibitory activity of a compound was plotted versus the concentration and an IC50 value (that concentration of the compound required to decrease cellular translational activity by 50%) was derived for each compound.

herpes virus = settings: added to lidocaine or lidocaine hydrochloride; cited from earlier work
[3] = Blood pressure in conscious spontaneously hypertensive rats (SHR); assay type: in vivo
Protocol: The ability of the compounds to lower blood pressure can be assessed in vivo in conscious spontaneously hypertensive rats (SHR). SHR are purchased from Taconic Farms, Germantown, N.Y. and are approximately 16-18 weeks old when anesthetized with ether. The caudal ventral tail) artery is cannulated with polyethylene tubing (PE50) and blood pressure and heart rate are recorded as described by Baum, T. et. al, J. Cardiovasc. Pharmacol. Vol 5, pp. 665-667, (1983). Rats are placed into pastic cylindrical cages where they rapidly recover consciousness. Blood pressure and heart rate are allowed to stabilize for approximately 90 minutes prior to compound administration. Compounds are administered orally as solutions or suspensions in 0.4% aqueous methylcellulose vehicle via a feeding needle. The compound or 0.4% aqueous methylcellulose vehicle are given in a volume of 4 ml/kg to SHRs that had been fasted overnight. Alternatively,compounds are administered intravenously. The compound is solubilized with a minimum amount of an organic solvent such as ethanol or dimethylsulfoxide and given in physiological saline. Activity is expressed as the fall in mean blood pressure (MBP) in millimeters of mercury (mm Hg). Compound-induced changes are compared with the changes in an appropriate placebo group.

HSV-1 = settings: cited from earlier work
HSV-2 = settings: cited from earlier work
[4] = Human alphaherpesvirus 2, Table II^1, HeLa cells, HSV-2 strain MS, read-out: Anti-HSV activity HSV-β-Gal assay IC50

**Q.** Which IC50 ([1]; Table VI) does the source give for `CCCCCCn1c(=O)c(C(=O)OCC)c(OC)c2cc(C)ccc21` [Compound 28, 1-hexyl-3-ethoxycarbonyl-4-methoxy-6-methyl-2(1H)-quinolinone] here?
**A.** Its IC50 is 3 µM.

**Q.** For `Nc1nc2c(ncn2COCCO)c(=O)[nH]1` [Acyclovir, 9-[(2-hydroxyethoxy)methyl]guanine, reference compound], which “Neurological dysfunction (percentage animals developing loss of bladder/hindlimb control)” value (HSV-2, strain MS) is on record?
**A.** Its value is 44%.

**Q.** And the “MSL (Maximum Lesion score)” value (HSV-2, strain MS)?
**A.** The value was 1.61.

**Q.** For `Cc1c(OC(=O)c2ccc[nH]2)ccc2c(N)cc(=O)oc12` [Compound 70, 4-Amino-7-(Pyrrol-2-carbonyloxy)-8-Methyl-Benzopyran-2-one], which IC50 (HSV-2 (strain MS); [4]) is on record?
**A.** The IC50 was 15.5 µg/mL (≈ 54.5 µM).

**Q.** And the IC50 (HeLa cells)?
**A.** Its IC50 is 74 µg/mL (≈ 260 µM).

**Q.** With `CCCCCCn1c(=O)c(CO)c(OC)c2cc(C)ccc21` [Compound 9, 1-Hexyl-3-Hydroxymethyl-4-Methoxy-6-Methyl-2(1H)-Quinolinone] as the molecule, how does the IC50 (HSV-2 (strain MS); Human alphaherpesvirus 2, Table II, HeLa cells, HSV-2 strain MS, read-out: Anti-HSV activity, HSV-β-GAL assay IC50) read?
**A.** Its IC50 is < 3 µg/mL.

**Q.** What about the CC50 at 24 h [2] of the same molecule?
**A.** The CC50 at 24 h was 25 µg/mL (≈ 82.4 µM).

**Q.** What about the “Neurological dysfunction (percentage animals developing loss of bladder/hindlimb control)” value (HSV-2, strain MS) of the same molecule?
**A.** The value was 44%.

**Q.** And the “MSL (Maximum Lesion score)” value (HSV-2, strain MS)?
**A.** Its value is 1.44.

**Q.** What about the IC50 ([1]; Table VI) of the same molecule?
**A.** Its IC50 is 6 µM.

**Q.** Which “enhancement of antiviral activity of lidocaine or lidocaine hydrochloride” value (herpes virus) does the source give for `CC(C)(CO)[C@@H](O)C(=O)NCCC(=O)O` [pantothenic acid] here?
**A.** The value was “significantly enhances”.

**Q.** With `CCOC(=O)c1c(OCCN(C)C)c2cc(C)ccc2n(Cc2ccccc2)c1=O` [Compound 27] as the molecule, how does the “MBP (fall in mean blood pressure)” value ([3]; 25 mpk p.o.) read?
**A.** Its value is 19 mm of Hg.

**Q.** What about the “MBP (fall in mean blood pressure)” value ([3]; 50 mpk p.o.) of the same molecule?
**A.** The value was 24 mm of Hg.

**Q.** What about the “MBP (fall in mean blood pressure)” value ([3]; 100 mpk p.o.) of the same molecule?
**A.** The value was 59 mm of Hg.

**Q.** What about the IC50 ([1]; Table VI) of the same molecule?
**A.** The IC50 was 4 µM.

**Q.** With `CCN(CC)CC(=O)Nc1c(C)cccc1C` [lidocaine, 2-(diethylamino)-N-(2,6-dimethylphenyl)acetamide] as the molecule, how does the “antiviral activity in cell culture” value (HSV-1) read?
**A.** The value was “antiviral agent”.

**Q.** And the “antiviral activity in cell culture” value (HSV-2)?
**A.** Its value is “antiviral agent”.

**Q.** Which results are given for `CCOC(=O)c1c(OC)c2cc(C)ccc2n(Cc2ccccc2)c1=O` [Compound 7, 1-benzyl-3-ethoxycarbonyl-4-methoxy-6-methyl-2(1H)-quinolinone]?
**A.** IC50 (HSV-2 (strain MS); Human alphaherpesvirus 2, HeLa, read-out: Anti-HSV activity, HSV-β-GAL assay IC50): 3 µg/mL (≈ 8.54 µM); CC50 at 24 h [2]: 37 µg/mL (≈ 105 µM); MBP (fall in mean blood pressure) ([3]; Table VII, at 25 mpk (P.O.)): 0 mm Hg; IC50 ([1]; Table VII): 8 µM

**Q.** With `Cc1c(OC(=O)c2cccn2C)ccc2c(N)cc(=O)oc12` [Compound 69, 4-Amino-7-(N-Methyl-Pyrrol-2-Carbonyloxy)-8-Methyl-Benzopyran-2-one] as the molecule, how does the IC50 (HSV-2 (strain MS); [4]) read?
**A.** The IC50 was 9.8 µg/mL (≈ 32.9 µM).

**Q.** What about the IC50 (HeLa cells) of the same molecule?
**A.** Its IC50 is 100 µg/mL (≈ 335 µM).

**Q.** With `CC(C)(CO)[C@@H](O)C(=O)NCCCO` [dexpanthenol] as the molecule, how does the “enhancement of antiviral activity of lidocaine or lidocaine hydrochloride” value (herpes virus) read?
**A.** Its value is “significantly enhances”.
